Assay results from paper PMC6681021 (Pharmaceutics, 2019).
Where “and” joins values, the source holds several entries; their conditions need not be identical. Equal values may be shown once. Read-outs that look alike come from different tables or passages of the source.

Legend:
[1] = Pharmacokinetics after 1-min intravenous infusion of tofacitinib to rats; assay type: in vivo, Sprague-Dawley rats; conditions: for clearance / CL renal / MRT / half-life / Vd: Sprague-Dawley; for clearance / CL renal / MRT / half-life / Vd / AUC: rat; for Dose-normalized AUC: normalized to 10 mg/kg; for half-life: read-out: Terminal half-life; for Vd: read-out: Vss; for AUC: 1-min iv infusion, male Sprague-Dawley rats
Procedure: The pretreatment and surgical procedures for oral and intravenous administration were similar to those described previously. For oral administration, the rats were fasted overnight with free access to water. The rats were anesthetized with ketamine (200 mg/kg), and their carotid arteries were cannulated using polyethylene tubing (Clay Adams, Parsippany, NJ, USA) for blood sampling. For intravenous administration, the rats were anesthetized with ketamine (200 mg/kg), and their jugular veins and carotid arteries were cannulated for drug administration and blood sampling, respectively. Rats were allowed to recover for 4–5 h after surgical procedures. The rats were not restrained during the experimental period and had free access to water and food.
Blood samples (110–220 μL) were collected via the carotid artery at times 0 (prior to drug administration), 1 (at the end of drug infusion), 5, 15, 30, 45, 60, 90, 120, 180, 240, 360, 480, and 600 min. […] To prevent blood clotting, 0.3 mL of heparinized 0.9% NaCl-injectable solution (20 IU/mL) was immediately injected into the carotid artery after each blood sampling. Urine samples were collected over 24 h; in addition, each metabolic cage was rinsed with 20 mL of distilled water 24 h after drug administration, and the rinses were combined with their corresponding 24-h urine samples. […] At 24-h, each rat was exsanguinated, followed by cervical dislocation. The abdomen of each rat was opened and the entire gastrointestinal tract, including its contents and feces, was removed, transferred to a beaker containing 50 mL methanol, and cut into small pieces using scissors.
Two microliters of hydrocortisone (5 mg/mL) and 40 μL of 20% ammonia solution were added to 100 μL aliquots of biological samples and vortex-mixed for 30 s using a vortex mixer. Each solution was extracted with 1.5 mL of ethyl acetate by centrifugation at 12,000 rpm for 5 min. The organic layer was collected and dried (Dry Thermobath, Eyela, Tokyo, Japan) under a gentle stream of nitrogen gas at 40 °C. The samples were reconstituted in 130 μL of 20% acetonitrile, and 50 μL of resuspended samples were analyzed by HPLC [12].
The mobile phase consisted of a 69.5:30.5 (v/v) mixture of 10 mM ammonium acetate buffer (pH 5.0) and acetonitrile, respectively, with a flow rate of 1.0 mL/min. Column effluent was monitored by a UV detector at 287 nm.
(§1) Pharmacokinetic parameters, including AUC, apparent volume of distribution at steady state (Vss), mean residence time (MRT), and time-averaged total body (CL), renal (CLR), and nonrenal (CLNR) clearances, were calculated by noncompartmental analysis (WinNonlin, Pharsight Corporation, Mountain View, CA, USA) using standard methods. AUC values were calculated using the trapezoidal rule–extrapolation method. The peak plasma concentration (Cmax) and time to reach Cmax (Tmax) were obtained directly from the experimental data. The mean values of clearance, terminal half-life, and Vss were calculated using the harmonic mean method.

[2] = cited from earlier work
[3] = humans, cited from earlier work
[4] = Human pharmacokinetics of tofacitinib (literature); assay type: in vivo; conditions: humans; 100–74%
[5] = Hepatic first-pass effect: 30-min intravenous vs intraportal infusion in rats; assay type: in vivo, Sprague-Dawley rats; conditions: for AUC / CL renal / MRT / clearance / half-life / Vd: Sprague-Dawley, rat, plasma; for half-life: read-out: Terminal half-life; for Vd: read-out: Vss
Procedure: The carotid artery and jugular vein were handled as described previously. In addition, the vein from the cecum was cannulated and the cannula was pushed forward about 4 cm toward the liver through the portal vein to minimize the damage from blood flowing into the portal vein [13, 14]. […] Blood samples were collected from the carotid artery at times 0, 15, 30 (at the end of the infusion), 31, 35, 45, 60, 90, 150, 210, 270, 390, 510, and 630 min, with all sample collection and processing procedures identical to those described above.
as §1

[6] = Biliary excretion after intravenous infusion in rats; assay type: in vivo, Sprague-Dawley rats; conditions: 1-min iv infusion 10 mg/kg, 0–24 h bile, n = 3
Procedure: The jugular vein of each rat was cannulated. The abdomen was opened and the bile duct was cannulated with polyethylene tubing. The incision was closed with surgical sutures and each rat was kept warm under an electric light. Each rat was maintained in the supine position during the entire experiment. […] Bile samples were collected over various time periods, from 0–1, 1–2, 2–4, 4–6, and 6–24 h.

[7] = 30-min intraportal infusion, 10 mg/kg (n = 7)
[8] = 30-min intravenous infusion, 10 mg/kg

SMILES: C[C@@H]1CCN(C(=O)CC#N)C[C@@H]1N(C)c1ncnc2[nH]ccc12 [tofacitinib, 3-[(3R,4R)-4-methyl-3-[methyl-(7H-pyrrolo[2,3-day]pyrimidin-4-l)amino]piperidin-1-yl]-3-oxopropanenitril]
- clearance ([1]; plasma, iv 50 mg/kg): 14.5 ± 2.33 mL/min/kg
- Ae0–24 h ([1]; all intravenous doses): less than 11.0%
- Slope of plot of AUC versus dose ([1]; intravenous, dose and AUC ratios based on 5 mg/kg): 2.74
- CLR slower at 50 mg/kg than at 5 mg/kg ([1]; iv): 69%
- CLR slower at 50 mg/kg than at 10 mg/kg ([1]; iv): 71%
- CLR slower at 50 mg/kg than at 20 mg/kg ([1]; iv): 71%
- Ae0–24 h (excreted unchanged in 24-h urine) ([1]; iv 5 mg/kg): 7.62 ± 5.08 % of dose
- CLNR ([1]; iv 5 mg/kg): 32.9 ± 7.72 mL/min/kg
- Dose-normalized AUC ([1]; iv 5 mg/kg): 282 µg·min/mL and 282 ± 46.0 µg·min/mL
- Ae0–24 h (excreted unchanged in 24-h urine) ([1]; iv 10 mg/kg): 9.40 ± 5.06 % of dose
- CLNR ([1]; iv 10 mg/kg): 26.3 ± 2.16 mL/min/kg
- Dose-normalized AUC ([1]; iv 10 mg/kg): 342 µg·min/mL and 342 ± 33.1 µg·min/mL
- Ae0–24 h (excreted unchanged in 24-h urine) ([1]; iv 20 mg/kg): 11.0 ± 3.72 % of dose
- CLNR ([1]; iv 20 mg/kg): 22.6 ± 3.90 mL/min/kg
- Dose-normalized AUC ([1]; iv 20 mg/kg): 404 µg·min/mL and 404 ± 73.0 µg·min/mL
- Ae0–24 h (excreted unchanged in 24-h urine) ([1]; iv 50 mg/kg): 5.55 ± 3.91 % of dose
- CLNR ([1]; iv 50 mg/kg): 13.7 ± 2.12 mL/min/kg
- Dose-normalized AUC ([1]; iv 50 mg/kg): 705 µg·min/mL and 705 ± 114 µg·min/mL
- CL renal ([1]; male, plasma, iv 5 mg/kg): 2.69 ± 1.7 mL/min/kg
- MRT ([1]; male, plasma, iv 5 mg/kg): 35.2 min
- clearance ([1]; male, plasma, iv 5 mg/kg): 36.3 ± 6.02 mL/min/kg
- half-life ([1]; male, plasma, iv 5 mg/kg): 38.2 ± 11.7 min
- Vd ([1]; male, plasma, iv 5 mg/kg): 1.26 ± 0.46 L/kg
- CL renal ([1]; male, plasma, iv 10 mg/kg): 2.8 ± 1.69 mL/min/kg
- MRT ([1]; male, plasma, iv 10 mg/kg): 41.1 min
- clearance ([1]; male, plasma, iv 10 mg/kg): 29.5 ± 2.99 mL/min/kg
- half-life ([1]; male, plasma, iv 10 mg/kg): 41.6 ± 7.86 min
- Vd ([1]; male, plasma, iv 10 mg/kg): 1.21 ± 0.579 L/kg
- CL renal ([1]; male, plasma, iv 20 mg/kg): 2.8 ± 1.17 mL/min/kg
- MRT ([1]; male, plasma, iv 20 mg/kg): 35.5 min
- clearance ([1]; male, plasma, iv 20 mg/kg): 25.4 ± 4.26 mL/min/kg
- half-life ([1]; male, plasma, iv 20 mg/kg): 48.1 ± 5.56 min
- Vd ([1]; male, plasma, iv 20 mg/kg): 0.9 ± 0.218 L/kg
- CL renal ([1]; male, plasma, iv 50 mg/kg): 0.824 ± 0.651 mL/min/kg
- MRT ([1]; male, plasma, iv 50 mg/kg): 105 min
- half-life ([1]; male, plasma, iv 50 mg/kg): 97.8 ± 19.2 min
- Vd ([1]; male, plasma, iv 50 mg/kg): 1.49 ± 0.134 L/kg
- clearance ([1]; male, range over intravenous doses, based on plasma data): 14.5 to 36.3 mL/min/kg
- AUC ([1]; plasma, 5 mg/kg): 2350 ng·h/mL
- AUC ([1]; plasma, 10 mg/kg): 5700 ng·h/mL
- AUC ([1]; plasma, 20 mg/kg): 13500 ng·h/mL
- AUC ([1]; plasma, 50 mg/kg): 58800 ng·h/mL
- AUC of tofacitinib reduced in pretreated rats ([2]; pretreated with dexamethasone, inducer of CYP3A1/2): 56%
- AUC of tofacitinib greater in pretreated rats ([2]; pretreated with fluconazole, inhibitor of CYP2C11): 39%
- AUC of tofacitinib greater in pretreated rats ([2]; pretreated with ketoconazole, inhibitor of CYP3A1/2): 46%
- AUC of tofacitinib reduced in pretreated rats ([2]; pretreated with rifampin, inducer of CYP2C11): 26%
- Terminal half-life [3]: 192 min
- Volume of distribution [3]: 87 L
- Bound to plasma proteins ([3]; oral): 40%
- Oral dose presumed first-pass metabolized in the intestine and the liver [4]: 26%
- AUC after intraportal administration as % of that after intravenous administration ([5]; 10 mg/kg): 58.0%
- CL faster after intraportal than intravenous administration ([5]; 10 mg/kg): 67%
- CLNR faster after intraportal than intravenous administration ([5]; 10 mg/kg): 60%
- Vss higher after intraportal than intravenous administration ([5]; 10 mg/kg): 50%
- Ae0–24 h [5, 7]: 10.7 ± 9.42 % of dose
- CLNR [5, 7]: 38.5 ± 10.4 mL/min/kg
- Ae0–24 h [5, 8]: 12.5 ± 5.20 % of dose
- CLNR [5, 8]: 24.0 ± 6.46 mL/min/kg
- AUC [5, 7]: 4030 ng·h/mL
- CL renal [5, 7]: 5 ± 4.69 mL/min/kg
- MRT [5, 7]: 59.6 min
- clearance [5, 7]: 43.8 ± 11 mL/min/kg
- half-life [5, 7]: 42.4 ± 10.4 min
- Vd [5, 7]: 2.55 ± 0.72 L/kg
- AUC [5, 8]: 6950 ng·h/mL
- CL renal [5, 8]: 2.34 ± 2.9 mL/min/kg
- MRT [5, 8]: 67.5 min
- clearance [5, 8]: 26.3 ± 8.85 mL/min/kg
- half-life [5, 8]: 46.2 ± 12.5 min
- Vd [5, 8]: 1.7 ± 0.737 L/kg
- Excreted in bile [6]: 0.703 ± 0.303 % of the intravenous dose
